Source: patent publication US9266871B2, “Trifluoromethyl-substituted fused pyrimidines and their use” (BAYER PHARMA AKTIENGESELLSCHAFT, priority 2013, dated 2016)

Experiments:
[1] = tested on: aorta rings; assay: Vasorelaxant effect in vitro (phenylephrine-contracted aorta rings); details: Oryctolagus cuniculus; relaxation of phenylephrine-induced contraction, rabbit aorta rings
Method: B-1. Vasorelaxant Effect In Vitro
Rabbits are stunned by a blow to the neck and exsanguinated. The aorta is removed, freed from adhering tissue and divided into rings of a width of 1.5 mm. The rings are placed individually under an initial tension in 5 ml organ baths with Krebs-Henseleit solution which is at 37° C., is gassed with carbogen and has the following composition (in each case mM): sodium chloride: 119; potassium chloride: 4.8; calcium chloride dihydrate: 1; magnesium sulphate heptahydrate: 1.4; potassium dihydrogenphosphate: 1.2; sodium bicarbonate: 25; glucose: 10. The contractile force is determined with Statham UC2 cells, amplified and digitalized using A/D transducers (DAS-1802 HC, Keithley Instruments Munich), and recorded in parallel on linear recorders. To produce a contraction, phenylephrine is added to the bath cumulatively in increasing concentration. After several control cycles, the substance to be investigated is added in each further run in increasing dosage in each case, and the height of the contraction achieved is compared with the height of the contraction reached in the last preceding run. This is used to calculate the concentration needed to reduce the magnitude of the control value by 50% (IC50 value). The standard administration volume is 5 μl; the DMSO content in the bath solution corresponds to 0.1%.

[2] = molecular target: T1, recombinant guanylate cyclase reporter cell line (Rattus norvegicus, UniProt P19686+P20595); assay: Effect on a recombinant guanylate cyclase reporter cell line; format: cell-based
T1 construct: expressed in transfected cells; host or cells: recombinant reporter cell line
T1 sequence (P19686 1-690): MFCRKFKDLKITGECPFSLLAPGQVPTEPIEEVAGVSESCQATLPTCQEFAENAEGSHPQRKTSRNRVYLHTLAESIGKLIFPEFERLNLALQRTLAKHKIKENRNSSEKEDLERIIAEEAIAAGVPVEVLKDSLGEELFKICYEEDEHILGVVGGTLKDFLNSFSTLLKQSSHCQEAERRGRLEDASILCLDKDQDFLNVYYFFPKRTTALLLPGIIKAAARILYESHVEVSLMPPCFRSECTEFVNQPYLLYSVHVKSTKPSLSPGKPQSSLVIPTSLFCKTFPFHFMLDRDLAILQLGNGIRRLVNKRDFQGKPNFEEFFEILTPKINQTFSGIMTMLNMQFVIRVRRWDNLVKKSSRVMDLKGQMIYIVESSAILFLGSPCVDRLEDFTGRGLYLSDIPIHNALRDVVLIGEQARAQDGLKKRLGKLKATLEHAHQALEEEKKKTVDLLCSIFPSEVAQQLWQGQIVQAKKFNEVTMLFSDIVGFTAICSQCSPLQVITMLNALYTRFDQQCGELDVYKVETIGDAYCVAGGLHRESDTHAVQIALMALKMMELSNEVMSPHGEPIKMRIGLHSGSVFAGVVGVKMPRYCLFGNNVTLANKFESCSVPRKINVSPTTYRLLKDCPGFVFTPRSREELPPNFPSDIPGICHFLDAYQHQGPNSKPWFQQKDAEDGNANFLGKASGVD
T1 sequence (P20595 1-619): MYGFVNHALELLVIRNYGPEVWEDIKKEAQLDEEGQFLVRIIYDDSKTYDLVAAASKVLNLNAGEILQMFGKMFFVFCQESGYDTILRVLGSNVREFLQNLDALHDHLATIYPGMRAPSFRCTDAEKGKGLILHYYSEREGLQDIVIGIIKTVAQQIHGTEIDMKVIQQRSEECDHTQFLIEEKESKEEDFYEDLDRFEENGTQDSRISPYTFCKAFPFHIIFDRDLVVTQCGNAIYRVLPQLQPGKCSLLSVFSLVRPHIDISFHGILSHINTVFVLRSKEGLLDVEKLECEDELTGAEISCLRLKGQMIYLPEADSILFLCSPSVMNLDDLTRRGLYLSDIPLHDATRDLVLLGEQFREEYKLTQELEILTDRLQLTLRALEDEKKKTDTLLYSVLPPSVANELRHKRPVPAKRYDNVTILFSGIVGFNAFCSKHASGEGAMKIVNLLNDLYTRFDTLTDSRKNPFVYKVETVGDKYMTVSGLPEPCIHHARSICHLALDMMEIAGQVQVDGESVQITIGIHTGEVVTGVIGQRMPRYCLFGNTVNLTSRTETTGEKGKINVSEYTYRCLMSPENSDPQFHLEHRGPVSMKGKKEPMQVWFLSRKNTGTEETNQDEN
Method: B-2. Effect on a Recombinant Guanylate Cyclase Reporter Cell Line
The cellular activity of the compounds according to the invention is determined using a recombinant guanylate cyclase reporter cell line, as described in F. Wunder et al., Anal. Biochem. 339, 104-112 (2005).

IC50 [1] [nM]	MEC (minimum effective concentration) [2] [µM]	Compound
265	0.1	C[C@@]1(C(F)(F)F)C(=O)Nc2nc(-c3nn(Cc4ncccc4F)c4ncc(F)cc34)nc(NCCC(F)(F)F)c21 (single isomer, unassigned) [Example 1-1]
237	1.0	C[C@]1(C(F)(F)F)C(=O)Nc2nc(-c3nn(Cc4ncccc4F)c4ncc(F)cc34)nc(NCCC(F)(F)F)c21 (single isomer, unassigned) [Example 1-2]
